According to patent EP4563571A1, “PRMT5 INHIBITORS” (Beijing Earthwise Technology Co., Ltd., priority 2022, dated 2024):

These compounds were tested on HCT116^MTAP Deletion cells (assay: Anti-proliferation assay on cells (Cell-Titer Glo, 10 days)). Conditions: 240 h, HCT116^MTAP Deletion cells, 10 days incubation, CTG readout; read-out: HCT116^MTAP Deletion GI50.
Assay type: cell-based
Procedure: HCT116^MTAP Deletion cells were from Pharmaron (China); HCT116 cells were from ATCC; McCoy's 5A medium was purchased from Invitrogen (USA); penicillin-streptomycin and fetal bovine serum were purchased from Gibco (USA); a 384-well plate was purchased from PerkinElmer (USA); and Cell-Titer Glo reagent was purchased from Promega (USA).
Compound dissolution: All the compounds were dissolved in dimethyl sulfoxide (DMSO) and then stored. The compounds were stored at room temperature in a dry condition for 3 months for short term storage or at -20 °C for long term storage.
Cell culture and passaging
The cells were cultured strictly in accordance with ATCC requirements. The cell culture medium (McCoy's 5A medium + 10% fetal bovine serum + 1% penicillin + streptomycin) was transferred to a 15 mL centrifuge tube and centrifuged at 1000 rpm for 5 min. The supernatant was removed. The cells were resuspended with complete culture medium, inoculated into a culture dish at the required density, and cultured in an incubator at 37 °C, 95% humid air, and 5% carbon dioxide. The culture medium was replenished or the cells were passaged every 2-3 days depending on the cell growth condition.
Cell proliferation activity assay
When the confluency of cells in the culture dish reached about 90%, the cells were washed twice with PBS, and then treated with trypsin to become single cells. The cells were counted, and 40µl of the cells was inoculated into each well of a 384-well plate (50 cells/well). The plate was equilibrated at 37 °C and 5% carbon dioxide for 10 to 15 minutes. The compounds were injected into the 384-well plate using Echo550, and positive control and negative control (0.1% DMSO) were set up. Each compound was subjected to a 3-fold dilution, resulting in 10 concentration gradients, in duplicate, and the content of DMSO was 0.1%. The 384-well plate was incubated in a cell culture incubator for 10 days.
Then, 40 µl of cell proliferation assay reagent (CTG) was added to the 384-well plate, and the plate was shaken to mix well. Then, the 384-well plate was incubated at 37 °C and 5% carbon dioxide in the dark for 30 minutes. The data were read using the Envision multifunctional microplate reader. […] According to the different drug concentrations and their corresponding inhibition rates, the GI50 curve was drawn using GraphPad 8.0 software. The data were analyzed, and the final IC50 value was obtained.

Row | SMILES | GI50 [µM]
1 | CCC(C)N(Cc1cc(C(F)(F)F)ccn1)C(=O)C(=O)Nc1cnc(N)c(C)c1 (stereo not shown) [Example 105] | 0.1 to 1
2 | COc1ncc(NC(=O)C(=O)N(C)C2COc3cc(C(F)(F)F)ccc32)cc1C(N)=O (stereo not shown) [Example 142] | 1 to 10
3 | CCC(C)N(Cc1ccc(C(F)(F)F)cn1)C(=O)C(=O)Nc1cnc(N)c(C2CC2)c1 (stereo not shown) [Example 78] | 0.1 to 1
4 | CCC(C)N(Cc1ccc(S(C)(=O)=O)cn1)C(=O)C(=O)Nc1cnc(N)c(C)c1 (stereo not shown) [Example 85] | 0.1 to 1
5 | Cc1cc(NC(=O)C(=O)N(Cc2ccc(C(F)(F)F)nn2)[C@H](C)c2ncccn2)cnc1N [Example 55] | 0.1 to 1
6 | CC(C)CN(C(=O)C(=O)Nc1cnc(N)c2c1cnn2C)C1COc2cc(C(F)(F)F)ccc21 (stereo not shown) [Example 122] | 0.01 to 0.1
7 | COc1ncc(NC(=O)C(=O)N(C)C2COCc3cc(C(F)(F)F)ccc32)cc1C(N)=O (stereo not shown) [Example 143] | 0.1 to 1
8 | Cc1cc(NC(=O)C(=O)N(Cc2ccc(C(F)(F)F)cn2)CC23CC(C2)C3)cnc1N [Example 53] | 0.1 to 1
9 | Cc1c(-c2ccc3c(c2)COCC3N(C)C(=O)C(=O)Nc2cnc(N)c3c2cnn3C)cnn1C (stereo not shown) [Example 150] | < 0.01
10 | CN(C(=O)C(=O)Nc1cnc(N)c2c1cnn2C)C1COCc2ncccc21 (stereo not shown) [Example 151] | 0.01 to 0.1
11 | CC1OCc2c(NC(=O)C(=O)N(Cc3ccc(C(F)(F)F)cn3)Cc3ccnc4[nH]ccc34)cnc(N)c21 (stereo not shown) [Example 81] | < 0.01
12 | Cc1cn(-c2ccc3c(c2)COCC3N(C)C(=O)C(=O)Nc2cnc(N)c3c2cnn3C)cn1 (stereo not shown) [Example 145] | 0.01 to 0.1
13 | CCCN(C(=O)C(=O)Nc1cnc(N)c2c1cnn2C)C1COc2cc(C(F)(F)F)ccc21 (stereo not shown) [Example 117] | 0.01 to 0.1
14 | CCC(C)N(Cc1cccc(C(F)(F)F)n1)C(=O)C(=O)Nc1cnc(N)c(C)c1 (stereo not shown) [Example 87] | 0.1 to 1
15 | CCC(C)N(Cc1ccc(C(F)(F)F)nn1)C(=O)C(=O)Nc1cnc(N)c(C)c1 (stereo not shown) [Example 65] | 0.1 to 1
16 | Cc1cc(NC(=O)C(=O)N(Cc2ccc(C(F)(F)F)cn2)C(C)C(C)C)cnc1N (stereo not shown) [Example 86] | 0.01 to 0.1
17 | CCOc1ccc(CN(C(=O)C(=O)Nc2cnc(N)c(C)c2)C(C)CC)nc1 (stereo not shown) [Example 62] | 0.01 to 0.1
18 | CCC(C)N(Cc1cnc(C(F)(F)F)nc1)C(=O)C(=O)Nc1cnc(N)c(C)c1 (stereo not shown) [Example 58] | > 10
19 | CN(C(=O)C(=O)Nc1cnc(N)c2c1COC2)C1COCc2cc(C(F)(F)F)ccc21 (stereo not shown) [Example 56] | 0.01 to 0.1
20 | Nc1ncc(NC(=O)C(=O)N(Cc2ccc(C(F)(F)F)cn2)Cc2ccnc3[nH]ccc23)c2c1COC2 [Example 64] | 0.01 to 0.1

Next, values leading:

Row | GI50 [µM] | SMILES
21 | < 0.01 | Cc1ncc(-c2ccc3c(c2)OCC3N(C)C(=O)C(=O)Nc2cnc(N)c3c2cnn3C)s1 (stereo not shown) [Example 170]
22 | 0.01 to 0.1 | CN(C(=O)C(=O)Nc1cnc(N)c2c1cnn2C)C1COc2cc(S(C)(=O)=O)ccc21 (stereo not shown) [Example 189]
23 | 0.01 to 0.1 | CN(C(=O)C(=O)Nc1cnc(N)c2c1cnn2C)C1COc2cc(OC(F)F)ccc21 (stereo not shown) [Example 204]
24 | < 0.01 | CN(C(=O)C(=O)Nc1cnc(N)c2c1cnn2C)C1COCc2cc(C(C)(C)C)ccc21 (stereo not shown) [Example 217]
25 | 0.1 to 1 | CN(C(=O)C(=O)Nc1cnc(N)c2c1cnn2C)C1COc2ccccc2C1 (stereo not shown) [Example 234]
26 | 0.01 to 0.1 | CN(C(=O)C(=O)Nc1cnc(N)c2c1cnn2C)C1COCc2cc(N3CCOCC3)ccc21 (stereo not shown) [Example 175]
27 | 0.01 to 0.1 | Cc1ncc(-c2cc3c(cn2)C(N(C)C(=O)C(=O)Nc2cnc(N)c4c2cnn4C)COC3)s1 (stereo not shown) [Example 222]
28 | 0.01 to 0.1 | CN(C(=O)C(=O)Nc1cnc(N)c2c1cnn2C)C1COc2cc(C(F)(F)F)ncc21 (stereo not shown) [Example 188]
29 | 0.01 to 0.1 | CN(C(=O)C(=O)Nc1cnc(N)c2c1cnn2C)C1COc2cc(-c3ccc(C(F)(F)F)cn3)ccc21 (stereo not shown) [Example 177]
30 | 0.01 to 0.1 | CN(C(=O)C(=O)Nc1cnc(N)c2c1cnn2C)C1COc2cc(C(F)(F)F)c(F)cc21 (stereo not shown) [Example 199]
31 | 0.01 to 0.1 | Cc1cc(-c2ccc3c(c2)COCC3N(C)C(=O)C(=O)Nc2cnc(N)c3c2cnn3C)on1 (stereo not shown) [Example 179]
32 | < 0.01 | CN(C(=O)C(=O)Nc1cnc(N)c2c1cnn2C)C1COc2cc(C(F)(F)C(F)(F)F)ccc21 (stereo not shown) [Example 210]
33 | 0.01 to 0.1 | Cc1nc(-c2ccc3c(c2)OCC3N(C)C(=O)C(=O)Nc2cnc(N)c3c2cnn3C)no1 (stereo not shown) [Example 229]
34 | 0.01 to 0.1 | CN(C(=O)C(=O)Nc1cnc(N)c2c1cnn2C)C1COc2cc(C3=CCCOC3)ccc21 (stereo not shown) [Example 169]
35 | 0.1 to 1 | COc1ncc(NC(=O)C(=O)N(C)C2COCc3cc(C4=CCOCC4)ccc32)cc1C(N)=O (stereo not shown) [Example 166]
36 | 0.01 to 0.1 | CN(C(=O)C(=O)Nc1cnc(N)c2c1cnn2C)C1COc2cc(OC(F)(F)F)ccc21 (stereo not shown) [Example 196]
37 | < 0.01 | CN(C(=O)C(=O)Nc1cnc(N)c2c1cnn2C)C1COCc2cc(C(F)(F)C(F)(F)F)ccc21 (stereo not shown) [Example 238]
38 | < 0.01 | CC(C)c1ccc2c(c1)OCC2N(C)C(=O)C(=O)Nc1cnc(N)c2c1cnn2C (stereo not shown) [Example 230]
39 | 0.01 to 0.1 | CN(C(=O)C(=O)Nc1cnc(N)c2c1cnn2C)C1COCc2cc(S(C)(=O)=O)ccc21 (stereo not shown) [Example 227]
40 | 0.01 to 0.1 | CN(C(=O)C(=O)Nc1cnc(N)c2c1cnn2C)C1COc2c1ccc(C(F)(F)F)c2F (stereo not shown) [Example 208]

Same assay, conditions: HCT116^MTAP Deletion cells, 10 days incubation, CTG readout; read-out: HCT116^MTAP Deletion GI50

Row | SMILES | GI50 [µM]
41 | CC1OCc2c(NC(=O)C(=O)N(C)C3COCc4cc(C(F)(F)F)ccc43)cnc(N)c21 (single isomer, unassigned) [Example 146-P2] | 0.01 to 0.1
42 | CN(C(=O)C(=O)Nc1cnc(N)c2c1cnn2C)C1COCc2c1ccc(F)c2F (stereo not shown) [Example 138] | 0.01 to 0.1
43 | CCC(C)N(Cc1ccc(C(F)(F)F)cn1)C(=O)C(=O)Nc1cnc(N)c2c1cnn2C (stereo not shown) [Example 46-P2] | 0.01 to 0.1
44 | CC(c1cscn1)N(Cc1ccc(C(F)(F)F)cn1)C(=O)C(=O)Nc1cnc(N)c2c1cnn2C (stereo not shown) [Example 44] | 0.01 to 0.1
45 | Cc1cc(/C=C/C(=O)N(Cc2ccc(C(F)(F)F)cn2)[C@H](C)c2ncccn2)cnc1N [Example 6] | > 10
46 | Nc1ncc(NC(=O)C(=O)N(Cc2ccc(C(F)(F)F)cn2)CC2CCC2)c2c1COC2 [Example 41] | 0.1 to 1
47 | Cc1cc(NC(=O)C(=O)N(Cc2ccc(C(F)(F)F)cn2)C2CC2)cnc1N [Example 12] | 0.1 to 1
48 | Cc1cc(NC(=O)C(=O)N(Cc2ccc(C(F)(F)F)cn2)CC2CCC2)cnc1N [Example 16] | 0.01 to 0.1
49 | CCC(C)N(Cc1ccc(C(F)(F)F)cn1)C(=O)C(=O)Nc1cnc(N)c(C)c1 (single isomer, unassigned) [Example 45-P1] | 0.01 to 0.1
50 | Cc1cc(NC(=O)C(=O)N(Cc2ccc(N3CCC(F)(F)C3)cn2)[C@H](C)c2ncccn2)cnc1N [Example 29] | 0.1 to 1
51 | Cc1cc(NC(=O)C(=O)N(Cc2ccc(C3=CCOCC3)nn2)[C@H](C)c2ncccn2)cnc1N [Example 42] | 0.1 to 1
52 | Cc1cc(NC(=O)C(=O)N(Cc2ccc(C(F)(F)F)cn2)C2CCCOC2)cnc1N (single isomer, unassigned) [Example 14-P2] | 0.1 to 1
53 | Cc1cc(NC(=O)C(=O)N(Cc2ccc(C(F)(F)F)cn2)CC2CC2)cnc1N [Example 15] | 0.01 to 0.1
54 | C[C@H](c1ncccn1)N(Cc1ccc(C(F)(F)F)cn1)C(=O)C(=O)Nc1cnc(N)c(Cl)c1 [Example 23] | 1 to 10
55 | C[C@H](c1ncccn1)N(Cc1ccc(C(F)(F)F)cn1)C(=O)C(=O)Nc1cnc(N)c(Br)c1 [Example 24] | 0.1 to 1
56 | C[C@H](C1CC1)N(Cc1ccc(C(F)(F)F)cn1)C(=O)C(=O)Nc1cnc(N)c2c1COC2 [Example 39] | 0.1 to 1
57 | CCC(C)N(Cc1ccc(OCC(F)(F)F)nn1)C(=O)C(=O)Nc1cnc(N)c(C)c1 (stereo not shown) [Example 63] | 0.1 to 1
58 | Cc1cc(C2CC2C(=O)N(Cc2ccc(C(F)(F)F)cn2)[C@H](C)c2ncccn2)cnc1N (stereo partly shown) [Example 7] | > 10
59 | CN(C(=O)C(=O)Nc1cnc(N)c2c1cnn2C)C1COCc2nc(C(F)(F)F)ccc21 (single isomer, unassigned) [Example 152-P1] | 0.1 to 1
60 | Cc1nc(NC(=O)C(=O)N(Cc2ccc(C(F)(F)F)cn2)[C@H](C)c2ncccn2)cnc1N [Example 27] | 0.1 to 1

Results, then the compound that gave them:

Row | GI50 [µM] | SMILES
61 | < 0.01 | CN(C(=O)C(=O)Nc1cnc(N)c2c1cnn2C)C1COc2cc(-c3ccnn3C)ccc21 (racemic) [compound 192]
62 | < 0.01 | CN(C(=O)C(=O)Nc1cnc(N)c2c1cnn2C)C1COCc2cc(Br)ccc21 (racemic) [compound 182]
63 | < 0.01 | CN(C(=O)C(=O)Nc1cnc(N)c2c1cnn2C)C1COCc2cc(-c3cnn(C4CC4)c3)ccc21 (racemic) [compound 223]
64 | 0.01 to 0.1 | CN1CC=C(c2ccc3c(c2)COCC3N(C)C(=O)C(=O)Nc2cnc(N)c3c2cnn3C)CC1 (stereo not shown) [Example 160]
